In PubChem BioAssay (NCI):
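All cell lines were grown in 96-well plates and treated with compound for 48 hours. GI50 marks 50% less growth. Definition used: TGI = concentration required for complete inhibition of growth.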

Assays:
Assay in all cases: DTP human tumour cell line panel, 48 h
SNB-75 CNS = system: SNB-75 CNS
HOP-92 NSCLC = system: HOP-92 NSCLC
MCF7 breast = system: MCF7 breast
HCC-2998 colon = system: HCC-2998 colon
ACHN renal = system: ACHN renal
HL-60(TB) leukemia = system: HL-60(TB) leukemia
SK-MEL-2 melanoma = system: SK-MEL-2 melanoma
HCT-15 colon = system: HCT-15 colon
SN12C renal = system: SN12C renal
SK-OV-3 ovarian = system: SK-OV-3 ovarian
TK-10 renal = system: TK-10 renal
HOP-62 NSCLC = system: HOP-62 NSCLC
OVCAR-4 ovarian = system: OVCAR-4 ovarian
HT29 colon = system: HT29 colon
BT-549 breast = system: BT-549 breast
MOLT-4 leukemia = system: MOLT-4 leukemia
UO-31 renal = system: UO-31 renal
K-562 leukemia = system: K-562 leukemia
OVCAR-3 ovarian = system: OVCAR-3 ovarian
PC-3 prostate = system: PC-3 prostate
CCRF-CEM leukemia = system: CCRF-CEM leukemia
RPMI-8226 leukemia = system: RPMI-8226 leukemia
OVCAR-8 ovarian = system: OVCAR-8 ovarian
SF-539 CNS = system: SF-539 CNS
LOX IMVI melanoma = system: LOX IMVI melanoma
IGROV1 ovarian = system: IGROV1 ovarian
EKVX NSCLC = system: EKVX NSCLC
HS 578T breast = system: HS 578T breast
A549 NSCLC = system: A549 NSCLC

SMILES: Fc1ccc(-c2nnc3sc(-c4cc(Cl)cc(Cl)c4)nn23)cc1Cl
- GI50 (SNB-75 CNS): 13 µM
- TGI (SNB-75 CNS): 30.1 µM
- GI50 (HOP-92 NSCLC): 20.5 µM
- TGI (HOP-92 NSCLC): 52.4 µM
- GI50 (MCF7 breast): 30.5 µM
- TGI (MCF7 breast): > 100 µM
- GI50 (HCC-2998 colon): > 100 µM
- TGI (HCC-2998 colon): > 100 µM
- GI50 (ACHN renal): 21 µM
- TGI (ACHN renal): 45.6 µM
- GI50 (HL-60(TB) leukemia): 99.1 µM
- TGI (HL-60(TB) leukemia): > 100 µM
- GI50 (SK-MEL-2 melanoma): > 100 µM
- TGI (SK-MEL-2 melanoma): > 100 µM
- GI50 (HCT-15 colon): 72.5 µM
- TGI (HCT-15 colon): > 100 µM
- GI50 (SN12C renal): 34.2 µM
- TGI (SN12C renal): > 100 µM
- GI50 (SK-OV-3 ovarian): 24.6 µM
- TGI (SK-OV-3 ovarian): 46.3 µM
- GI50 (TK-10 renal): 20.5 µM
- TGI (TK-10 renal): 44 µM
- GI50 (HOP-62 NSCLC): 20.3 µM
- TGI (HOP-62 NSCLC): 42 µM
- GI50 (OVCAR-4 ovarian): 17.4 µM
- TGI (OVCAR-4 ovarian): 53.4 µM
- GI50 (HT29 colon): 28.1 µM
- TGI (HT29 colon): 83.3 µM
- GI50 (BT-549 breast): 87.1 µM
- TGI (BT-549 breast): > 100 µM
- GI50 (MOLT-4 leukemia): 72.9 µM
- TGI (MOLT-4 leukemia): > 100 µM
- GI50 (UO-31 renal): 39.6 µM
- TGI (UO-31 renal): > 100 µM
- GI50 (K-562 leukemia): > 100 µM
- TGI (K-562 leukemia): > 100 µM
- GI50 (OVCAR-3 ovarian): > 100 µM
- TGI (OVCAR-3 ovarian): > 100 µM
- GI50 (PC-3 prostate): 61.3 µM
- TGI (PC-3 prostate): > 100 µM
- GI50 (CCRF-CEM leukemia): 29 µM
- TGI (CCRF-CEM leukemia): 86.8 µM
- GI50 (RPMI-8226 leukemia): 46.8 µM
- TGI (RPMI-8226 leukemia): > 100 µM
- GI50 (OVCAR-8 ovarian): 46.6 µM
- TGI (OVCAR-8 ovarian): > 100 µM
- GI50 (SF-539 CNS): > 100 µM
- TGI (SF-539 CNS): > 100 µM
- GI50 (LOX IMVI melanoma): 32.8 µM
- TGI (LOX IMVI melanoma): > 100 µM
- GI50 (IGROV1 ovarian): > 100 µM
- TGI (IGROV1 ovarian): > 100 µM
- GI50 (EKVX NSCLC): > 100 µM
- TGI (EKVX NSCLC): > 100 µM
- GI50 (HS 578T breast): 45.2 µM
- TGI (HS 578T breast): > 100 µM
- GI50 (A549 NSCLC): 24.4 µM
- TGI (A549 NSCLC): 61.8 µM
